The conditions of data set [1]: dogs; cited from earlier work.
In the next data set the target is hD2R (human D2LR) (Homo sapiens, UniProt P14416). Kind of data set: Radioligand competition binding at hD2R with [3H]-N-methylspiperone. On the technique in general: Displacement assays read how much labelled ligand stays bound in the presence of the test substance.
A further data set has as its target MOR (SNAP-mMOR) (Mus musculus, UniProt P42866). Kind of data set: BRET antagonism at MOR using GPA in the presence of 100 nM DAMGO. The class given is cell-based. Background: In BRET a luciferase serves as donor, and the signal depends on an acceptor being close.
In a further data set the target is hD3R (Homo sapiens, UniProt P35462). Kind of data set: Radioligand competition binding at hD3R with [3H]-N-methylspiperone.

The structures appear in SMILES notation.

Sequence of hD3R (P35462 whole entry): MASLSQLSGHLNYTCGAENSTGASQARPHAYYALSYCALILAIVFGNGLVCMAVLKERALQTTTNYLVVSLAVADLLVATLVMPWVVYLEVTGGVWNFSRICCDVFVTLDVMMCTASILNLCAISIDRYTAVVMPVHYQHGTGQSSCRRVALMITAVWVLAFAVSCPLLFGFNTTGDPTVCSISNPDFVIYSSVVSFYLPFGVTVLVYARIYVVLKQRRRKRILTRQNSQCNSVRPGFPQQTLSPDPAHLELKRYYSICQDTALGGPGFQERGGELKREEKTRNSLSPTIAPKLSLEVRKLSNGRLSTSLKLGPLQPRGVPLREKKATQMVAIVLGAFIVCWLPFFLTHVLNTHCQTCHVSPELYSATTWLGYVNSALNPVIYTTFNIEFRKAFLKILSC
Sequence of hD2R (human D2LR) (P14416 whole entry): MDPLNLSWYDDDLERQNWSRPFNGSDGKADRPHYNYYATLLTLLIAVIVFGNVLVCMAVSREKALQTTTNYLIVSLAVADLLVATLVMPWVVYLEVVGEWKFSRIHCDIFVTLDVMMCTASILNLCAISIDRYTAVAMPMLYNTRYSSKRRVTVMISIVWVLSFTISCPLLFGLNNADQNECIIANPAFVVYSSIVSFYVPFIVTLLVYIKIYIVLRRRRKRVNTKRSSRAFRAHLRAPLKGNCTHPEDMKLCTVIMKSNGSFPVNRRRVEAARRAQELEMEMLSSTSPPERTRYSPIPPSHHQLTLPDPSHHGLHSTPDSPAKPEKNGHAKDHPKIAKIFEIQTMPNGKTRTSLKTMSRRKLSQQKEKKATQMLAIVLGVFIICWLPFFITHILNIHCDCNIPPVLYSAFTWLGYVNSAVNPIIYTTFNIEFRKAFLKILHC
Sequence of MOR (SNAP-mMOR) (P42866 whole entry): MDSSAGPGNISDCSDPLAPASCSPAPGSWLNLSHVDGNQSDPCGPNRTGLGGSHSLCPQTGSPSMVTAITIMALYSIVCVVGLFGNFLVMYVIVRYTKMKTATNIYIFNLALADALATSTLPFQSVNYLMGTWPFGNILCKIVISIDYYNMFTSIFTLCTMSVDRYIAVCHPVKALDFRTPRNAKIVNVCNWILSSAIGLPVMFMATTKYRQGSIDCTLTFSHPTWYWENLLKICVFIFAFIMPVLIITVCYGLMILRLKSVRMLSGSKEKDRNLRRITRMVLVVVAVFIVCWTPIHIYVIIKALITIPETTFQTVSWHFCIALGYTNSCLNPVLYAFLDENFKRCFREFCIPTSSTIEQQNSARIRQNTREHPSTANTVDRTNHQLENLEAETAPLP

Consider `Cc1ncoc1-c1nnc(SCCCN2C[C@@H]3C[C@]3(c3ccc(C(F)(F)F)cc3F)C2)n1C` [GSK598809], for which the “potentiation of hypertensive effects of cocaine” value in data set [1] is on record as “potentiation of hypertensive effects observed in dogs produced by cocaine”. With `CCC(=O)C(CC(C)N(C)C)(c1ccccc1)c1ccccc1` (centres unmarked) [compound 6, methadone], the “D2R Ki” value at hD2R (human D2LR) is “completely inactive”. A word on the IC50: it is the concentration needed to halve the response being measured. Consider `CCOC(=O)/C=C1\[C@@H]2CCC[C@@]1(c1cccc(O)c1)CCN2CCCCNC(=O)c1cc2ccccc2[nH]1` [compound 57, trans-Ethyl (Z)-2-((1S,5S)-2-(4-(1H-indole-2-carboxamido)butyl)-5-(3-hydroxyphenyl)-2-azabicyclo[3.3.1]nonan-9-ylidene)acetate], for which, at MOR (SNAP-mMOR), the IC50 is 3520 nM. By Ki is commonly meant a dissociation constant, usually derived from enzyme kinetics or from competition with a known ligand. A higher Ki goes with weaker binding. At hD3R, `O=C(NCCCCN1CC[C@]2(c3cccc(O)c3)CCC[C@H]1[C@H]2O)c1cc2ccccc2[nH]1` [compound 62, N-(4-((1S,5S,9S)-9-Hydroxy-5-(3-hydroxyphenyl)-2-azabicyclo[3.3.1]nonan-2-yl)butyl)-1H-indole-2-carboxamide] returned a Ki of 79.6 nM. Same read-out and setting: the result for `CCOC(=O)/C=C1\[C@@H]2CCC[C@@]1(c1cccc(O)c1)CCN2CCN1CCN(c2cccc(Cl)c2Cl)CC1` [compound 65, Ethyl (Z)-2-((1S,5S)-2-(2-(4-(2,3-dichlorophenyl)piperazin-1-yl)ethyl)-5-(3-hydroxyphenyl)-2-azabicyclo[3.3.1]nonan-9-ylidene)acetate] reads 139 nM.

These data come from publication PMC9308496 (Journal of medicinal chemistry, 2021).
